Laboratory results as given in patent US20230405062A1, “GOS PRE-CONDITIONING L. REUTERI AND GOS IN FINAL FORMULATION” (BIOGAIA AB, priority 2021, published 2023).

Columns and labels:
L. reuteri DSM 17938 = test: Survival of L. reuteri in colon (qPCR), short SHIME model; design: species or system Lactobacillus reuteri; conditions: for survival of L. reuteri in the colon in presence or absence of GOS: 48 h incubation, qPCR, FIG. 4A
Excerpt: (§1) In this experiment, a simplified simulation of the continuous Simulator of the Human Microbial Ecosystem (SHIME®) was used. This SHIME® model has been extensively used for more than 20 years for both scientific and industrial projects and has been validated with in vivo parameters (see for example Van den Abbeele et al., Arabinoxylo-Oligosaccharides and Inulin Impact Inter-Individual Variation on Microbial Metabolism and Composition, Which Immunomodulates Human cells, J. Agric. Food chem. 2018, 66(5): 1121-1130).
(§2) For the current set of experiments a two-stage batch system mimicking the upper gastro-intestinal tract (Upper GIT, stomach and small intestine) and colonic conditions were used as simplified SHIME® system (FIG. 1). Cow milk-based toddler beverage, also called Growing-up-milk, containing minerals adapted for the age group was used in these studies.
Fresh fecal material was collected from an infant donor. Fecal suspension was prepared and mixed with a protectant. At the start of the short-term colonic incubation, the test ingredients (L. reuteri strain and Streptococcus thermophilus strain) were added to sugar-depleted nutritional medium containing basal nutrients present in the colon (e.g., host-derived glycans such as mucin).
L. reuteri strain and S. thermophilus strain were inoculated at 1×10^9 CFU/reactor. […]
(§3) L. reuteri strain and pre-conditioned L. reuteri strain were inoculated at 1x10^9 CFU/reactor. L. reuteri were quantified by plating on MRS medium, while S. thermophilus was plated on M17 medium supplemented with lactose. […] Quantities of L. reuteri and S. thermophilus powders were then calculated to target 1x10^9 CFU/colonic reactor. […]
(§4) Quantitative polymerase chain reaction (qPCR) was performed to selectively enumerate Lactobacilli and Streptococci. qPCR was performed at 0 h and after 48 h of colonic incubation.

S. thermophilus NCC2496 = test: Survival of S. thermophilus in colon (qPCR), short SHIME model; design: species or system Streptococcus thermophilus; conditions: 48 h incubation, FIG. 4A
Excerpt: as §1
as §2, with “studies. […]” for “studies.”
as §3, §4

“Lactobacillus reuteri DSM 17938 [L. reuteri]” was tested, and the “survival of L. reuteri in the colon in presence or absence of GOS” value (L. reuteri DSM 17938) was “enhanced by the presence of GOS”, the “survival of L. reuteri in the colon in presence or absence of GOS” value (L. reuteri DSM 17938; listed as L. reuteri DSM17938) was “positive effect of GOS” and the “survival of L. reuteri in the colon in presence of GOS, pre-conditioned vs non-pre-conditioned” value (L. reuteri DSM 17938; cell counts at 48 h, FIG. 4B) was “survives well”.

In the case of “Streptococcus thermophilus NCC2496 [S. thermophilus]”, the “survival of S. thermophilus in the colon in presence or absence of GOS” value (S. thermophilus NCC2496) is reported as “impaired by the presence of GOS” and the “survival of S. thermophilus in the colon in presence or absence of GOS” value (S. thermophilus NCC2496; listed as Streptococcus thermophilus NCC2496) is reported as “negative effect of GOS”.
